Drawing on a melting point compilation (Tetko et al.; mined from patent text by program, amines drawn as free bases though some values may be those of a salt), this text covers melting point for 87 compounds.

On to `CNC(=S)NN1Cc2c(C)ccc(C)c2C1`, for which the melting point – broadly, the temperature of the solid-liquid transition – is 177 to 178 °C.

`Oc1ccc(-c2cc3cc(O)cc(Cn4ccnc4)c3o2)cc1` registered a melting point of 269 to 271 °C.

Compound `COc1ccc2c(c1)COc1c-2ccc2c(OC)cccc12` yielded a melting point of 166 to 167 °C.

Compound `COC(=O)C=C1CC(NC(=O)OC(C)(C)C)C1` (configuration not stated) returned a melting point of 79 to 82 °C.

As for `Cc1ccccc1N1CCc2nnc3c(C)cccc3c21`, the melting point is 135 to 137 °C.

`COC(=O)c1cc(C)cnc1Cl` displayed a melting point of 31 to 33 °C.

The compound `CCOCC1(C)CCCOc2cc(C#Cc3ccc(C(=O)O)cc3)ccc21` (configuration not stated) showed a melting point of 170 to 171 °C.

`Cn1cnc(COc2nc3c(cc2C(C)(C)C)nnn3-c2cc(F)ccc2F)n1`: the melting point is 154 to 157 °C.

On to `COc1cc2c(cc1Nc1ncc(Cl)c(N[C@@H]3CCCC[C@H]3NS(C)(=O)=O)n1)CCNC(=O)C2`, for which the melting point fell in the range of 109 to 115 °C.

Regarding `CCN1C(=O)C(C)(C)C(=O)N(C)c2cc(CN(CCn3ccc4oc(C)cc4c3=O)Cc3ccc(OC)nc3C)ccc21`, the melting point was 155 to 156 °C.

Consider `O=C(Nc1ccc(Br)cc1)c1cc2ccccc2o1`, for which the melting point is 178 to 180 °C.

On to `CC(C)(C)c1cc(C=C2SC(=S)N(N)C2=O)ccc1O`, for which the melting point was more than 225 °C.

`N#Cc1c(N2CCCCC2)cc(-c2ccc(F)cc2)c2c1-c1ccccc1C2=O` came in with a melting point of 180 to 182 °C.

With `O=C1c2ccccc2-c2c1c1ccccc1c(=O)n2CCCCCCNS(=O)(=O)c1ccc(Br)cc1`, the melting point is 188 to 190 °C.

For the compound `COc1ccc(-n2nc(Sc3ccc(Cl)c(Cl)c3)c(C)c(C#N)c2=O)cc1`, the melting point fell in the range of 168 to 171 °C.

Compound `O=P(O)(O)C(O)(CCc1nn(-c2ccc(F)cc2)cc1-c1ccc(Cl)cc1)P(=O)(O)O` gave a melting point of 223 °C.

As for `CON=C(C(N)=NO)c1ccccc1COc1ccccc1C`, the melting point lay within 110 to 112 °C.

As for `CCN1C(=O)N(c2cc(OC)cc(OC)c2F)Cc2cnc(NC3CCC(O)CC3)nc21` (configuration not stated), the melting point lay in the range of 198 to 204 °C.

`COC(=O)c1cc(C)nc(C)c1` came in with a melting point of 45 to 47 °C.

In turn, `CNc1ccc(OCCN2CCC(Cc3ccc(C)cc3)CC2)cc1` registered a melting point of 136 to 137 °C.

In the case of `CC(C)C(=O)c1cccc([N+](=O)[O-])c1`, the melting point lay within 33 to 35 °C.

The compound `CC(C)(CO)Oc1ccccc1` yielded a melting point of 91 to 92 °C.

The compound `O=C(C=Cc1cccnc1)c1ccccc1OCc1ccccc1` had a melting point of 117 to 119 °C.

`Nc1ccc(C=CC(=O)N2CCc3c([nH]c4ccccc34)C2c2ccc3c(c2)OCO3)cc1` (configuration not stated) showed a melting point of 262 to 265 °C.

Turning to `CC(=O)C1=CCC2C3CCC4CC(O)CCC4(C)C3C(OC(=O)CCl)CC12C` (configuration not stated), the melting point lay in the range of 160 to 162 °C.

In the case of `Cc1cccc2ncn(C(C)C(O)(Cn3cncn3)c3ccc(F)cc3F)c(=O)c12` (configuration not stated), the melting point was in the range of 87 to 89 °C.

`CCCC(CCC)C(=O)N[C@@H](Cc1ccccc1)C(=O)N[C@H]1CCOC1=O` registered a melting point of 203 to 205 °C.

As for `CC(C)c1nc(CO)n(Cc2ccccc2[N+](=O)[O-])c1Sc1cc(Cl)cc(Cl)c1`, the melting point is 160 to 166 °C.

Take `COC(=O)c1cc(=O)c(OCc2ccccc2)co1`: the melting point lay within 134 to 136 °C.

Compound `CC(C)n1c(/C=C/C(O)CC(O)CC(=O)OC(C)(C)C)c(-c2ccc(F)cc2)c2ncccc21` (configuration not stated) gave a melting point of 62 to 65 °C.

For the compound `O=C1c2cc(I)ccc2-n2c1nc1ccccc1c2=O`, the melting point was in the range of 296 to 297 °C.

The compound `O=C(Nc1cc2ccccc2cn1)c1ncccc1NCc1ccncc1` had a melting point of 168 °C.

For the compound `COc1cc2cc(CO)c(CO)c(-c3ccnc(-n4c(=O)cc(C(=O)N5CCN(CCO)CC5)c5ccccc54)c3)c2cc1OC`, the melting point lay in the range of 150 to 153 °C.

As to `CC(=O)NC(COC1CCN(c2nc3ccc(OCC4CC4)cc3o2)CC1)C(F)(F)F` (configuration not stated), the melting point lay within 126 to 127 °C.

Take `CCCOC12CCC(=O)C3(C)Oc4c(O)ccc5c4C31CCN(CC1CC1)C2C5` (configuration not stated): the melting point was 184 to 186 °C.

Consider `COc1ccc(N2C(=O)C3=C(SCCO3)C2=O)nn1`, for which the melting point stood at 157 °C.

For the compound `CNC(=O)c1n[nH]cc1NC(=O)c1ccccn1`, the melting point lay within 248 to 249 °C.

`COc1ccc(-c2cc(=Nc3c(C)cc(C)cc3C)n(C)c(=O)n2CC(=O)O)cc1OC`: the melting point was 148 to 150 °C.

For the compound `Cn1c2c(c3ccc(-n4ccc(OCc5ccccc5)cc4=O)cc31)CNCCC2`, the melting point was in the range of 178 to 181 °C.

In the case of `CSC1=Nc2ccccc2Cc2nccn21`, the melting point lay in the range of 200 to 201 °C.

`O=C(OCc1ccccc1)C1C(Sc2ccccc2)CC2CC(=O)N21` (configuration not stated) displayed a melting point of 84 to 85 °C.

Consider `OC(c1ccccc1)(c1ccccc1)C1CCN(CCCOc2ccccc2)CC1`, for which the melting point fell in the range of 87 to 88 °C.

On to `CCOC(=O)CC1(c2ccccc2OCC)C(=O)Nc2ccc(Cl)cc21` (configuration not stated), for which the melting point is 181 °C.

`O=C(Nc1ccc(-n2nc(C(F)(F)F)cc2C2CC2)cc1)c1ccncc1F` gave a melting point of 143 to 146 °C.

On to `C[C@@]1(NC(=O)c2cc3cccc4c3n2CCC4)C(=O)N(c2ccccc2F)c2ccccc21`, for which the melting point is 194 to 195 °C.

`CCc1noc(-c2cn(-c3cccc(O)c3)cn2)n1` gave a melting point of 214 to 215 °C.

Regarding `CCOC(=O)CCN1CCN(CC2CN(c3ccc(C(=N)NC(=O)c4ccccc4)cc3)C(=O)O2)CC1` (configuration not stated), the melting point is 163 to 164 °C.

Compound `CCCCC(CC)CNCCCCOc1ccc2ccccc2c1` (configuration not stated) registered a melting point of 94 °C.

On to `FC(F)(Br)C(F)(F)Oc1ccc(C2(c3ccc(OC(F)(F)C(F)(F)Br)cc3)c3ccccc3-c3ccccc32)cc1`, for which the melting point lay within 157 to 158 °C.

Compound `O=C(CO)c1ccccc1F` displayed a melting point of 51 to 54 °C.

The compound `O=S(=O)(CC1CCC1)c1nc[nH]n1` gave a melting point of 125 to 134 °C.

`CCOc1ccc2c(c1)n(C1CCOCC1)c(=O)n2S(=O)(=O)c1ccc(C(=O)OC)cc1OC` yielded a melting point of 165 °C.

Regarding `CC(=O)N(C)c1csc(Br)n1`, the melting point came to 84 °C.

On to `C[C@H](CO)CN1CCC(c2noc3cc(F)ccc23)CC1`, for which the melting point was 119 to 121 °C.

`COc1cc(COc2nn(-c3ccccc3)cc2CO)ccc1OCc1nc(-c2ccco2)oc1C` showed a melting point of 127 to 128 °C.

The compound `CC(C)c1c(C(=O)O)cnn1-c1ccc(Cl)cc1` registered a melting point of 211 to 212 °C.

Compound `[N-]=[N+]=NC1(O)CC(n2ccc(N)nc2=O)OC1CO` (configuration not stated) gave a melting point of 174 to 176 °C.

Compound `CCCCCCCCCCOc1ccc(-c2ccc(CCCCC(C)OC(C)=O)cc2)cc1` (configuration not stated) showed a melting point of 75 to 76 °C.

With `C=CCN(C(=O)OCc1ccccc1)c1cc(F)c(-c2ccncc2)c(F)c1`, the melting point lay in the range of 82 to 83 °C.

Compound `NC(=O)CCNC(=O)c1cccc(-c2cccc3oc(Cc4cccc(C(F)(F)F)c4)cc23)c1` displayed a melting point of 155 to 156 °C.

`COc1cccc2c1C[C@@H](NC=O)CC2` registered a melting point of 140 to 141 °C.

On to `COCc1cc(Cl)n2nc(SCc3ccccc3)nc2n1`, for which the melting point is 79 °C.

`Clc1cccc(-c2n[nH]cc2-c2ccnc(NCCc3ccccc3)c2)c1` came in with a melting point of 185 to 186 °C.

In turn, `COc1cccc(CN2CCN(C)CC2C2=NCCN2)c1` (configuration not stated) came in with a melting point of 78 to 80 °C.

For the compound `CCc1cc(COc2nn(Cc3ccccc3)cc2CO)ccc1OCc1nc(-c2ccco2)oc1C`, the melting point lay in the range of 116 to 117 °C.

The compound `CC1(N2Cc3cc(CNC(=O)Cc4ccc(Cl)cc4)ccc3C2=O)CCC(=O)NC1=O` (configuration not stated) showed a melting point of 230 to 232 °C.

In the case of `CCOC(=O)COc1ccc(C(=O)c2ccn[nH]2)c(Cl)c1Cl`, the melting point was 147 to 149 °C.

The compound `O=[N+]([O-])c1ccc(CS(=O)(=O)NCCc2ccccc2)cc1` registered a melting point of 101 to 103 °C.

On to `CC(Cc1cccc2ccccc12)(Cc1cccc2ccccc12)C(=O)NC(C)(Cc1c[nH]c2ccccc12)C(=O)O` (configuration not stated), for which the melting point lay within 195 to 197 °C.

In turn, `N#Cc1cccc(CN2CCN(c3ccc(NC(=O)c4ccccc4OCc4ccc(C(F)(F)F)cc4)cc3)CC2)c1` returned a melting point of 190 to 191 °C.

Compound `O=C(O)COc1cc(Cl)ccc1C(=O)NCc1cccc(C(F)(F)F)c1` had a melting point of 179 to 181 °C.

Regarding `COC(=O)C(=O)c1occc1/C=C/c1ccccc1`, the melting point amounted to 116 °C.

Take `CN1Cc2c(-c3nc(CCl)cs3)ncn2-c2cccc(Cl)c2C1=O`: the melting point lay in the range of 277 to 279 °C.

`COc1ccc(CNc2cc(N3CCCC3CO)ccc2C(=O)NCc2ncccn2)cc1Cl` (configuration not stated) registered a melting point of 102 to 107 °C.

The compound `C#Cc1ccc2c(c1)CC1SC(c3ccccc3)=NC21O` (configuration not stated) displayed a melting point of 118 °C.

On to `CC(=O)Nc1ccc(N2C(=O)C3CCC2n2c(=O)n(-c4ccccc4)c(=O)n23)cc1` (configuration not stated), for which the melting point fell in the range of 144 to 145 °C.

Turning to `O=CN1CCC(c2nn(-c3ccc(C(F)(F)F)cc3)c3ccccc23)CC1`, the melting point fell in the range of 109 to 111 °C.

In the case of `CC(=O)NC(CCCCN)C(=O)C(N)C(CC1(C(=O)NC2CCC(C(=O)O)CC2)CCCC1)C(=O)O` (configuration not stated), the melting point fell in the range of 161 to 163 °C.

For the compound `CCOC(=O)C(C)(C)OCc1cc2cc(C(F)(F)F)ccc2n1S(=O)(=O)c1ccccc1`, the melting point fell in the range of 62 to 64 °C.

`C=CCn1c(C)nc2c3c(c(C(=O)OCC)cc21)CCC1(Cc2ccccc2C1)N3`: the melting point turned out to be 150 °C.

In turn, `O=c1[nH]c(CSCc2ccccc2)nc2nccnc12` registered a melting point of 224 to 226 °C.

`CC(C)(C)n1nnc(Cc2ccc(CBr)cc2)n1` displayed a melting point of 73 to 74 °C.

In turn, `Nc1ccccc1Nc1ccc(Nc2nccs2)cc1` displayed a melting point of 184 to 186 °C.

`CCN(C)C(=O)Nc1ccc2c(c1)C(c1ccccc1F)=NCC(=O)N2C` returned a melting point of 165 to 168 °C.

`CSC(=N[N+](=O)[O-])NCc1ccc(Cl)nc1` returned a melting point of 140 to 142 °C.

Regarding `CCOc1cc(OCCCc2cn(-c3ccc(C(F)(F)F)cn3)nc2C)ccc1CCC(=O)O`, the melting point lay within 129 to 130 °C.

Turning to `CC(C)c1ccc(C(=O)NNC(=O)c2ccc(C(=O)O)cc2)cc1`, the melting point lay within 235 to 237 °C.
